Assay results published in patent publication US7232809B2, “Mitochondrially targeted antioxidants” (Antipodean Pharmaceuticals, Inc., priority 1997, dated 2007).

What was measured:
143B cells [1] = assay: Uptake of compound 1 by intact cells; format: cell-based, human
Protocol: The mitochondrial specific accumulation of compound 1 also occurs in intact cells. This was measured as described by Burns and Murphy, 1997 and the accumulation was prevented by dissipating both the mitochondrial and plasma membrane potentials. […] Therefore the accumulation of compound 1 into cells is driven by the mitochondrial membrane potential.
(§1) The next step was to determine whether compound 1 was accumulated by intact cells. […] A proportion of this uptake of compound 1 into cells was inhibited by blocking the plasma and mitochondrial membrane potentials (FIG. 9). This energisation-sensitive uptake corresponds to an intra mitochondrial concentration of compound 1 of about 2–4 mM, which is sufficient to protect mitochondria from oxidative damage.
Here 10^6 143B cells (closed symbols) or ρ° cells (open symbols) were incubated with 1 μM [3H] compound 1 and the compound 1 accumulation ratio determined. Human osteosarcoma 143B cells and a derived ρ° cell line lacking mitochondrial DNA were cultured in DMEM/10% FCS (foetal calf serum) supplemented with uridine and pyruvate under an atmosphere of 5% CO2/95% air at 37° C., grown to confluence and harvested for experiments by treatment with trypsin. To measure [^3H] compound 1 accumulation cells (10^6) were incubated in 1 ml HEPES-buffered DMEM. At the end of the incubation, cells were pelleted by centrifugation, the cell pellet and the supernatant prepared for scintillation counting and the accumulation ratio [compound 1/mg protein)/(compound 1/μl)]calculated.
Human osteosarcoma 143B cells were incubated in 1 ml HEPES-buffered DMEM with 1-50 μM compound 1 supplemented with 6–60 nCi/ml [^3H] compound 1. To determine the energistration-dependent uptake, parallel incubations with 12.5 μM oligomycin, 20 μM FCCP; 10 μM myxathiazol. 100 nM valinomycin and 1 mM ouabain were carried out. At the end of the incubation, cells were pelleted by centrifugation and prepared for scintillation counting and the energisation-sensitive uptake determined.

[2] = Octan-1-ol/PBS partition coefficient; format: physicochemical; details: 200 μM, room temperature, 1 h, means±SEM of three
Protocol: (§2) The IC50 values for inhibition of lipid peroxidation were determined in rat brain homogenates, and are means±SEM or range of determinations on 2–3 brain preparations. Octan-1-ol/PBS partition coefficients are means±SEM for three independent determinations. N.D. not determined. Partition coefficients were determined by mixing 200 μM of the compound in 2 ml water-saturated octanol-1-ol with 2 ml octanol-saturated-PBS at room temperature for 1 h, then the two layers were separated by brief centrifugation and their concentrations determined spectrophotometrically from standard curves prepared in PBS or octanol. To measure antioxidant efficacy four rat brains were homogenised in 15 ml 40 mM potassium phosphate (pH 7.4), 140 mM NaCl at 4° C., particulate matter was pelleted (1,000×g at 4° C. for 15 min) and washed once and the combined supernatants stored frozen. Aliquots were rapidly thawed and 5 mg protein suspended in 800 μl PBS containing antioxidant or ethanol carrier and incubated at 37° C. for 30 min. Thiobarbituric acid reactive species (TBARS) were quantitated at 532 nm by adding 200 μl conc. HClO4 and 200 μl 1% thiobarbituric acid to the incubation, heating at 100° C. for 15 min and then cooling and clarification by centrifugation (10,000×g for 2 min).

rat liver mitochondria [3] = assay: Protection of mitochondrial function (membrane potential) from iron/ascorbate oxidative damage; format: biochemical; details: 5 μM, compared with Vitamin E
Protocol: Energised rat liver mitochondria were incubated with iron/ascorbate with no additions (stippled bars), 5 μM compound 1 (filled bars), 5 μM α-tocopherol. (open bars) or 5 μM TPMP (cross hatched bars), and then isolated and the membrane potential generated by respiratory substrates measured relative to control incubations in the absence of iron/ascorbate. Rat liver mitochondria were incubated at 25° C. in a shaking water bath in 2 ml medium containing 100 mM KCl, 10 mM Tris, pH 7.7, supplemented with rotenone (1.33 μg/ml), 10 mM succinate, 500 μM ascorbate and other additions. […] TPMP either 10 mM glutamate and malate, 10 mM succinate and rotenone, or 5 mM ascorbate/100 μM TMPD with rotenone and myxothiazol (2 μg/ml), incubated at 25° C. for 3 min then pelleted and the membrane potential determined as above and compared with an incubation that had not been exposed to oxidative stress.

rat liver mitochondria [4] = assay: Effect of compound 1 on membrane potential and respiration rate of isolated mitochondria; details: at the concentrations that afford protection
Protocol: TPMP at 25° C. for 3 min. After the incubation mitochondria were pelleted by centrifugation and the [^3H] TPMP in the supernatant and pellet quantitated by scintilation counting and the membrane potential calculated assuming a volume of 0.5 μl/mg proteins and that 60% of intramitochondrial TPMP is membrane bound.

143B cells [5] = assay: Cell viability by lactate dehydrogenase release; format: cell-based, human; details: 24 h, LDH release, concentrations giving 2–4 mM intramitochondrial
Protocol: as §1
Here, confluent 143B cells in 24 well tissue culture dishes were incubated with various concentrations of compound 1 for 24 h and cell viability measured by lactate dehydrogenase release.

rat liver mitochondria [6] = assay: Uptake of [3H] compound 1 by energised rat liver mitochondria
rat brain homogenates = assay: Inhibition of lipid peroxidation in rat brain homogenates (TBARS assay); format: biochemical; details: TBARS, read-out: concentration that inhibited oxidative stress by 50%
Protocol: The rat brain homogenates were incubated with or without various concentrations of the test compounds (compound 1; native Vitamin E (α-tocopherol), bromobutyl triphenylphosphonium bromide, Trolox (a water soluble form of Vitamin E) and compound 2, ie2-(2-bromoethyl)-3,4-dihydro-2,5,7,8-tetramethyl-2H-1-benzopyran-6-ol, the precursor of compound 1 (“Brom Vit E”)) and the oxidative damage occurring over the incubation was quantitated using the TBARS assay (Stocks et al., 1974, Clin Sci Mol Med 47,215–222). From this the concentration of compound required to inhibit oxidative damage by 50% was determined. In this system 210 nM compound 1 inhibited oxidative stress by 50% while the corresponding value for native Vitamin E was 36 nM. The value for bromobutyltriphenylphosphonium bromide, which contains the triphenylphosphonium moiety but not the antioxidant Vitamin E moiety was 47 μM. […] Further details of the experimental procedures and results are set out below.
as §2

rat liver mitochondria [7] = assay: Protection of mitochondria against oxidative damage (TBARS, protein carbonyls); format: biochemical
Protocol: Mitochondria were exposed to oxidative stress by incubation with iron/ascorbate and the effect of compound 1 on oxidative damage assessed by measuring TBARS (filled bars) and protein carbonyls (open bars). Rat liver mitochondria (10 mg protein) were incubated at 25° C. in a shaking water bath in 2 ml medium containing 100 mM KCl, 10 mM Tris, pH 7.7, supplemented with rotenone (1.33 μg/ml), 10 mM succinate, 500 μM ascorbate and other additions. After preincubation for 5 min, 100 μM FeSO4 was added and 45–55 min later duplicate samples were removed and assayed for TBARS or protein carbonyls.
Energised rat liver mitochondria were exposed to tert-butylhydroperoxide and the effect of compound 1 (filled bars), α-tocopherol (open bars), compound 1+333 nM FCCP (stippled bars) or the simple lipophilic cation bromobutyl triphenylphosphonium (cross hatched bars) on TBARS formation determined.

Cc1c(C)c2c(c(C)c1O)CCC(C)(CC[P+](c1ccccc1)(c1ccccc1)c1ccccc1)O2 (centres unmarked) [compound 1]
intra mitochondrial concentration from energisation-sensitive uptake (143B cells [1]; 143B cells, 1 h incubation): 2 to 4 mM | accumulation by cells containing defective mitochondria (143B cells [1]; cells without mitochondrial membrane potential): not accumulated | accumulation by intact cells (143B cells [1]; intact 143B cells): rapidly accumulated | Octanol:PBS partition coefficient [2]: 7.37 ± 1.56 | protection of mitochondrial function (ability to generate a membrane potential) (rat liver mitochondria [3]): far more effectively than Vitamin E itself | damage to mitochondria (rat liver mitochondria [4]): not damaging to mitochondria | toxicity to cells (143B cells [5]): not toxic to cells | time for reversal of accumulation by FCCP (rat liver mitochondria [6]; FCCP added after accumulation): < 10 s | effect of uncoupler FCCP on accumulation into mitochondria (rat liver mitochondria [6]; addition of FCCP): blocked | time for uptake into mitochondria (rat liver mitochondria [6]; energised rat liver mitochondria): < 10 s | accumulation ratio into mitochondria (rat liver mitochondria [6]; energised rat liver mitochondria, membrane potential about 180 mV): about 6,000 | proportion membrane-bound within mitochondria (rat liver mitochondria [6]; inferred from uptake of TPMP and compound 1 at the same membrane potential): about 84% | intramitochondrial concentration (rat liver mitochondria [6]; isolated mitochondria, range of concentrations of compound 1 (FIG. 2)): 4 to 8 mM | slope of accumulation ratio of compound 1 relative to that of TPMP (rat liver mitochondria [6]; range of membrane potentials, 10 μM compound 1, 1 μM TPMP, 3 min): 2.472 | IC50 (rat brain homogenates): 210 nM | protection of mitochondria against oxidative damage (lipid peroxidation and protein carbonyl formation) (rat liver mitochondria [7]; mitochondria exposed to oxidative stress): protected them against oxidative damage | antioxidant protection with uncoupler FCCP (rat liver mitochondria [7]; mitochondria incubated with FCCP to prevent uptake): prevented
